# Test results from patent US11629171B2, “Beta-hairpin peptidomimetics” (POLYPHOR AG, priority 2017, dated 2023).
# Where a SMILES comes first, the peptide text is derived from it. Bridges are numbered along the chain shown (N, C = ends). Roman numbers before positions name the chains, in order. [ ]: non-standard residue; d: D form. The star is where a group is joined. Leu(3R-OH) = CC(C)[C@@H](O)[C@H](N)C(=O)O; Tle = CC(C)(C)[C@H](N)C(=O)O; Hiv = CC(C)[C@H](O)C(=O)O; dDab = NCC[C@@H](N)C(=O)O; hSer = N[C@@H](CCO)C(=O)O; Dab = NCC[C@H](N)C(=O)O; Dap = NC[C@H](N)C(=O)O; NHCH2CH2OH = OCCN*
# Columns and labels:
# Format in all cases: cell-based
# [1] = system: Acinetobacter baumannii 872842; conditions: 872842
# Procedure, shortened: (§1)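 Peptides are tested in serial two-fold dilutions against about 10^6 CFU/mL in MH-II broth containing 0.002% P-80 (v/v, final). Plates incubate 18-20 h at 35° C, and the MIC is the lowest peptide level (μg/mL) showing no visible growth.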
# [2] = system: Escherichia coli ATCC 25922; conditions: ATCC 25922
# Procedure, shortened: as §1
# [3] = system: Klebsiella pneumoniae 968733; conditions: 968733
# Procedure, shortened: as §1
# [4] = system: Acinetobacter baumannii DSM 30008; conditions: DSM 30008
# Procedure, shortened: as §1
# [5] = system: Klebsiella pneumoniae SSI #3010; conditions: SSI #3010
# Procedure, shortened: as §1
# [6] = system: Pseudomonas aeruginosa ATCC 27853; conditions: ATCC 27853
# Procedure, shortened: as §1
# [7] = system: Enterobacter cloacae 848840; conditions: 848840
# Procedure, shortened: as §1
# Escherichia coli 926415 = conditions: 926415
# Procedure, shortened: as §1
# [8] = system: human red blood cells (hRBC); test: Hemolysis; conditions: red cells of human, 1 h, 200
# Procedure, shortened: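 hRBC washed 4× in PBS; 200 μg/mL peptide + 20% (v/v) hRBC, 1 h, 37° C, 300 rpm. Spin, supernatant ~7.5-fold diluted, OD540 blank corrected. % hemolysis = OD540 peptide / OD540 Triton X-100 × 100.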
MIC [1] [µg/mL],MIC [2] [µg/mL],MIC [3] [µg/mL],MIC [4] [µg/mL],MIC [5] [µg/mL],MIC [6] [µg/mL],MIC [7] [µg/mL],MIC (Escherichia coli 926415) [µg/mL],SMILES,Hemolysis at 200 μg/mL [8] [%]
0.125,0.0625,0.5,0.03125,0.0625,0.125,0.125,0.25,CC(=O)N[C@@H](CCN)C(=O)N[C@H](C(=O)N[C@H](C(=O)N[C@@H](Cc1ccc(O)cc1)C(=O)N[C@H]1CSSC[C@@H](C(=O)N[C@H](C(=O)N[C@@H](C)C(=O)N[C@@H](CO)C(N)=O)C(C)(C)C)NC(=O)[C@H](Cc2c[nH]c3ccccc23)NC(=O)[C@H](CO)NC(=O)[C@@H](CCN)NC(=O)[C@H](CCC(=O)N[C@@H](CCN)C(=O)N[C@H](C(=O)N[C@@H](CN)C(=O)N[C@H]2CCNC(=O)[C@H]([C@@H](C)O)NC(=O)[C@H](CCN)NC(=O)[C@H](CCN)NC(=O)[C@H](CC(C)C)NC(=O)[C@@H](CC(C)C)NC(=O)[C@H](CCN)NC2=O)[C@@H](C)O)NC1=O)[C@@H](C)O)C(C)C [Ex. 237] (I: Ac-[Dab]VTYCE[dDab]SWC[Tle]AS-NH2 / II: [Dab]T[Dap][Dab][Dab][dL]L[Dab][Dab]T; disulfide I:5-I:10; amide I:6-II:N; lactam II:4-II:C),<1
0.0625,0.0625,0.25,0.03125,0.125,0.125,0.125,0.125,CC(=O)N[C@@H](CCN)C(=O)N[C@H](C(=O)N[C@H](C(=O)N[C@@H](Cc1ccc(O)cc1)C(=O)N[C@H]1CSSC[C@@H](C(=O)N[C@H](C(=O)N[C@@H](C)C(=O)N[C@H](C(N)=O)C(C)C)C(C)(C)C)NC(=O)[C@H](Cc2c[nH]c3ccccc23)NC(=O)[C@H](CO)NC(=O)[C@@H](CCN)NC(=O)[C@H](CCC(=O)N[C@@H](CCN)C(=O)N[C@H](C(=O)N[C@@H](CN)C(=O)N[C@H]2CCNC(=O)[C@H]([C@@H](C)O)NC(=O)[C@H](CCN)NC(=O)[C@H](CCN)NC(=O)[C@H](CC(C)C)NC(=O)[C@@H](CC(C)C)NC(=O)[C@H](CCN)NC2=O)[C@@H](C)O)NC1=O)[C@@H](C)O)C(C)C [Ex. 238] (I: Ac-[Dab]VTYCE[dDab]SWC[Tle]AV-NH2 / II: [Dab]T[Dap][Dab][Dab][dL]L[Dab][Dab]T; disulfide I:5-I:10; amide I:6-II:N; lactam II:4-II:C),2
0.125,0.125,0.25,0.0625,0.125,0.25,0.25,0.0625,CC(=O)N[C@@H](CCN)C(=O)N[C@@H](CC(C)C)C(=O)N[C@H](C(=O)N[C@@H](Cc1ccc(O)cc1)C(=O)N[C@H]1CSSC[C@@H](C(=O)N[C@H](C(=O)N[C@@H](C)C(=O)N[C@H](C(N)=O)C(C)C)C(C)(C)C)NC(=O)[C@H](Cc2c[nH]c3ccccc23)NC(=O)[C@H](CCN)NC(=O)[C@@H](CCN)NC(=O)[C@H](CCC(=O)N[C@@H](CCN)C(=O)N[C@H](C(=O)N[C@@H](CN)C(=O)N[C@H]2CCNC(=O)[C@H]([C@@H](C)O)NC(=O)[C@H](CCN)NC(=O)[C@H](CCN)NC(=O)[C@H](CC(C)C)NC(=O)[C@@H](CC(C)C)NC(=O)[C@H](CCN)NC2=O)[C@@H](C)O)NC1=O)[C@@H](C)O [Ex. 239] (I: Ac-[Dab]LTYCE[dDab][Dab]WC[Tle]AV-NH2 / II: [Dab]T[Dap][Dab][Dab][dL]L[Dab][Dab]T; disulfide I:5-I:10; amide I:6-II:N; lactam II:4-II:C),1
0.0625,0.0625,0.5,0.03125,0.125,0.25,0.125,0.0625,CC(=O)N[C@@H](CCN)C(=O)N[C@H](C(=O)N[C@H](C(=O)N[C@@H](Cc1ccc(O)cc1)C(=O)N[C@H]1CSSC[C@@H](C(=O)N[C@H](C(=O)N[C@@H](C)C(=O)N[C@H](C(N)=O)C(C)C)C(C)(C)C)NC(=O)[C@H](Cc2c[nH]c3ccccc23)NC(=O)[C@H](CCN)NC(=O)[C@@H](CCN)NC(=O)[C@H](CCC(=O)N[C@@H](CCN)C(=O)N[C@H](C(=O)N[C@@H](CN)C(=O)N[C@H]2CCNC(=O)[C@H]([C@@H](C)O)NC(=O)[C@H](CCN)NC(=O)[C@H](CCN)NC(=O)[C@H](CC(C)C)NC(=O)[C@@H](CC(C)C)NC(=O)[C@H](CCN)NC2=O)[C@@H](C)O)NC1=O)[C@@H](C)O)[C@H](O)C(C)C [Ex. 240] (I: Ac-[Dab][Leu(3R-OH)]TYCE[dDab][Dab]WC[Tle]AV-NH2 / II: [Dab]T[Dap][Dab][Dab][dL]L[Dab][Dab]T; disulfide I:5-I:10; amide I:6-II:N; lactam II:4-II:C),1

# Continued, compound first:
SMILES,MIC [1] [µg/mL],MIC [2] [µg/mL],MIC [3] [µg/mL],MIC [4] [µg/mL],MIC [5] [µg/mL],MIC [6] [µg/mL],MIC [7] [µg/mL],MIC (Escherichia coli 926415) [µg/mL],Hemolysis at 200 μg/mL [8] [%]
"CC(=O)N[C@@H](CCN)C(=O)N[C@@H](CC(C)C)C(=O)N[C@H]1CSSC[C@@H](C(=O)N[C@H](C(N)=O)C(C)C)NC(=O)[C@H](C(C)(C)C)NC(=O)[C@@H]2CSSC[C@H](NC(=O)[C@H](Cc3ccc(O)cc3)NC1=O)C(=O)N[C@@H](CCC(=O)N[C@@H](CCN)C(=O)N[C@H](C(=O)N[C@@H](CN)C(=O)N[C@H]1CCNC(=O)[C@H]([C@@H](C)O)NC(=O)[C@H](CCN)NC(=O)[C@H](CCN)NC(=O)[C@H](CC(C)C)NC(=O)[C@@H](CC(C)C)NC(=O)[C@H](CCN)NC1=O)[C@@H](C)O)C(=O)N[C@H](CCN)C(=O)N[C@@H](CCN)C(=O)N[C@@H](Cc1c[nH]c3ccccc13)C(=O)N2 [Ex. 234] (I: Ac-[Dab]LCYCE[dDab][Dab]WC[Tle]CV-NH2 / II: [Dab]T[Dap][Dab][Dab][dL]L[Dab][Dab]T; disulfide I:3-I:12, I:5-I:10; amide I:6-II:N; lactam II:4-II:C)",0.25,0.125,1,0.25,0.25,0.5,0.5,0.25,9
"CC(=O)N[C@@H](CCN)C(=O)N[C@H](C(=O)N[C@H]1CSSC[C@@H](C(=O)N[C@H](C(N)=O)C(C)C)NC(=O)[C@H](C(C)C)NC(=O)[C@@H]2CSSC[C@H](NC(=O)[C@H](Cc3ccc(O)cc3)NC1=O)C(=O)N[C@@H](CCC(=O)N[C@@H](CCN)C(=O)N[C@H](C(=O)N[C@@H](CN)C(=O)N[C@H]1CCNC(=O)[C@H]([C@@H](C)O)NC(=O)[C@H](CCN)NC(=O)[C@H](CCN)NC(=O)[C@H](CC(C)C)NC(=O)[C@@H](CC(C)C)NC(=O)[C@H](CCN)NC1=O)[C@@H](C)O)C(=O)N[C@H](CCN)C(=O)N[C@@H](CO)C(=O)N[C@@H](Cc1c[nH]c3ccccc13)C(=O)N2)[C@H](O)C(C)C [Ex. 235] (I: Ac-[Dab][Leu(3R-OH)]CYCE[dDab]SWCVCV-NH2 / II: [Dab]T[Dap][Dab][Dab][dL]L[Dab][Dab]T; disulfide I:3-I:12, I:5-I:10; amide I:6-II:N; lactam II:4-II:C)",0.0625,0.0625,0.25,0.0625,0.25,0.25,0.25,0.125,4
CC(C)C[C@@H]1NC(=O)[C@@H](CC(C)C)NC(=O)[C@H](CCN)NC(=O)[C@@H](NC(=O)[C@H](CCN)NC(=O)[C@@H](NC(=O)[C@H](CCN)NC(=O)CC[C@@H]2NC(=O)[C@@H](NC(=O)[C@H](CO)NC(=O)[C@@H](NC(=O)[C@@H](O)C(C)C)[C@@H](C)O)CSSC[C@@H](C(=O)N[C@H](C(=O)N[C@@H](C)C(=O)N[C@@H](Cc3ccc(O)cc3)C(=O)NCCO)C(C)(C)C)NC(=O)[C@H](Cc3c[nH]c4ccccc34)NC(=O)[C@H](CCO)NC(=O)[C@@H](CCN)NC2=O)[C@@H](C)O)CCNC(=O)[C@H]([C@@H](C)O)NC(=O)[C@H](CCN)NC(=O)[C@H](CCN)NC1=O [Ex. 236] (I: H-[Hiv]TSCE[dDab][hSer]WC[Tle]AY-NHCH2CH2OH / II: [Dab]T[Dab][Dab][Dab][dL]L[Dab][Dab]T; disulfide I:4-I:9; amide I:5-II:N; lactam II:4-II:C),2,0.25,8,0.25,0.25,0.25,1,2,<1
